From ChEMBL document CHEMBL4373731, “Antiprotozoal alkaloid principles of the plant family Amaryllidaceae” (Bioorg Med Chem Lett, 2019)
In brackets after ≈: the same amount, converted by molar mass.

How the values were obtained:
[1] = tested on: Trypanosoma brucei rhodesiense; assay: Antitrypanosomal activity against Trypanosoma brucei rhodesiense; assay type: functional, organism-based
Trypanosoma cruzi [2] = assay: Antitrypanosomal activity against Trypanosoma cruzi; assay type: functional, organism-based
Trichomonas vaginalis [3] = assay: Antiprotozoal activity against Trichomonas vaginalis assessed as reduction in […] at 250 ug/ml at relative to control; assay type: functional
Entamoeba histolytica = assay: […] activity against Entamoeba histolytica; assay type: functional, organism-based
Trichomonas vaginalis [4] = assay: Antitrichomonal activity against Trichomonas vaginalis assessed as reduction in parasite viability at 125 ug/ml relative to control; assay type: functional
[5] = Selectivity index, ratio of IC50 for Trypanosoma brucei rhodesiense to IC50 for human KB cells; assay type: toxicity; details: read-out: Ratio IC50
Leishmania donovani [6] = assay: […] activity against Leishmania donovani; assay type: functional, organism-based
L6 = assay: Cytotoxicity against rat L6 cells assessed as reduction in cell viability; assay type: cell-based
KB = assay: Cytotoxicity against human KB cells assessed as reduction in cell viability; assay type: cell-based
Leishmania donovani [7] = assay: […] activity against Leishmania donovani after 48 hrs by [3H]-hypoxanthine incorporation assay; assay type: functional, organism-based
[8] = tested on: Trypanosoma brucei rhodesiense; assay: Antitrypanosomal activity against Trypanosoma brucei rhodesiense after 48 hrs by [3H]-hypoxanthine incorporation assay; assay type: functional, organism-based
Trypanosoma cruzi [9] = assay: Antitrypanosomal activity against Trypanosoma cruzi after 48 hrs by [3H]-hypoxanthine incorporation assay; assay type: functional, organism-based

CC(=O)O[C@H]1[C@H]2c3cc4c(cc3CN3CCC(=C[C@@H]1OC(C)=O)[C@H]23)OCO4
IC50 [1]: 1 to 125 µg/mL (≈ 2.69 to 337 µM)
IC50 (Trypanosoma cruzi [2]): 1 to 8.4 µg/mL (≈ 2.69 to 22.6 µM)
Activity (Trichomonas vaginalis [3]): 19%

CO[C@@H]1C=C[C@@]23c4cc5c(cc4[C@H](O)N(C[C@@H]2O)[C@H]3C1)OCO5
IC50 [1]: 1.1 µg/mL (≈ 3.47 µM)
IC50 (Trypanosoma cruzi [2]): 1.38 to 1.4 µg/mL (≈ 4.35 to 4.41 µM)

CO[C@H]1C=C[C@@]23c4cc5c(cc4CN(C[C@@H]2O)[C@H]3C1)OCO5
IC50 (Entamoeba histolytica): 0.53 µg/mL (≈ 1.76 µM)

CO[C@@H]1C=C[C@@]23c4cc5c(cc4[C@H](O)O[C@H]2CN(C)[C@H]3C1)OCO5
Activity (Trichomonas vaginalis [4]): 38%

O[C@H]1[C@H]2c3cc4c(cc3CN3CC[C@H](C[C@@H]1O)[C@H]23)OCO4
IC50 [1]: 3.1 µg/mL (≈ 10.7 µM)
IC50 (Trypanosoma cruzi [2]): 21.4 µg/mL (≈ 73.9 µM)
selectivity ratio [5]: > 16
IC50 (Leishmania donovani [6]): > 90 µg/mL
IC50 (L6): 27 µg/mL (≈ 93.3 µM)
IC50 (KB): > 50 µg/mL

COC1C=C[C@@]23CCN(Cc4cc5c(cc42)OCO5)[C@@H]3C1 (stereo partly drawn)
IC50 [1]: 16.5 µg/mL (≈ 57.8 µM)
IC50 (Trypanosoma cruzi [2]): 55.5 µg/mL (≈ 195 µM)
IC50 (Leishmania donovani [6]): > 100 µg/mL

COc1cc2c(cc1O)CN1CC[C@@]23C=CC(O)C[C@H]13 (stereo partly drawn)
IC50 [1]: 61.5 µg/mL (≈ 225 µM)
IC50 (Trypanosoma cruzi [2]): > 90 µg/mL
IC50 (Leishmania donovani [6]): > 90 µg/mL

CO[C@@H]1C=C[C@@]23c4cc5c(cc4CN(C[C@@H]2O)[C@H]3C1)OCO5 [(+)-HAEMANTHAMINE]
IC50 [1]: 0.49 to 3.35 µg/mL (≈ 1.63 to 11.1 µM)
IC50 (Trypanosoma cruzi [2]): 1.8 to 30 µg/mL (≈ 5.97 to 99.6 µM)
IC50 (Leishmania donovani [6]): 1.95 to 30 µg/mL (≈ 6.47 to 99.6 µM)
IC50 (Entamoeba histolytica): 0.75 µg/mL (≈ 2.49 µM)

CC(=O)O[C@@H]1CC=C2CCN3Cc4cc5c(cc4[C@H]1[C@@H]23)OCO5 [ACETYLCARANINE]
IC50 [1]: 1.97 µg/mL (≈ 6.29 µM)
IC50 (Trypanosoma cruzi [2]): 35.9 µg/mL (≈ 115 µM)
IC50 (Leishmania donovani [6]): > 100 µg/mL

O=C(Cn1ccnc1[N+](=O)[O-])NCc1ccccc1 [BENZNIDAZOLE]
IC50 [1]: 0.04 µg/mL (≈ 0.154 µM)
IC50 (Leishmania donovani [7]): 33.3 µg/mL (≈ 128 µM)
IC50 (Trypanosoma cruzi [2]): 0.36 µg/mL (≈ 1.38 µM)
IC50 (Leishmania donovani [6]): 0.2 µg/mL (≈ 0.768 µM)
IC50 [8]: 0.001 µg/mL (≈ 0.00384 µM)
IC50 (Trypanosoma cruzi [9]): 5.42 µg/mL (≈ 20.8 µM)

COc1c2c(cc3c1OCO3)[C@@]13CCN(C2)[C@@H]1CC=C[C@H]3O [BUPHANAMINE]
IC50 [1]: 28.2 µg/mL (≈ 93.6 µM)
IC50 (Trypanosoma cruzi [2]): 62.9 µg/mL (≈ 209 µM)
IC50 (Leishmania donovani [6]): > 100 µg/mL

COc1c2c(cc3c1C(=O)O[C@H]1[C@@H]3[C@H]3C(=C[C@@H]1O)CCN3C)OCO2 [CANDIMINE]
Activity (Trichomonas vaginalis [3]): 60%

O[C@H]1C=C[C@@]23CCN(Cc4cc5c(cc42)OCO5)[C@@H]3C1 [CRININE]
IC50 [1]: 18.9 µg/mL (≈ 69.8 µM)

COc1ccc2c3c1O[C@H]1C[C@@H](O)C=C[C@@]31CCN(C)C2 [GALANTAMINE]
IC50 [1]: > 30 µg/mL
IC50 (Trypanosoma cruzi [2]): > 30 µg/mL
IC50 (Leishmania donovani [6]): > 30 µg/mL

COc1cc2c(cc1OC)[C@@H]1[C@H](O)[C@@H](OC)C=C3CCN(C2)[C@H]31 [GALANTHINE]
IC50 [1]: 3.1 µg/mL (≈ 9.77 µM)

O[C@H]1[C@H]2c3cc4c(cc3CN3CCC(=C[C@@H]1O)[C@H]23)OCO4 [LYCORINE]
IC50 [1]: 3.1 µg/mL (≈ 10.8 µM)
Activity (Trichomonas vaginalis [3]): 40%
IC50 (Entamoeba histolytica): 0.23 µg/mL (≈ 0.801 µM)
Activity (Trichomonas vaginalis [4]): 20%

Nc1nc(N)nc(Nc2ccc([As]3SCC(CO)S3)cc2)n1 (stereo not drawn) [MELARSOPROL]
IC50 [1]: 0.04 µg/mL
IC50 (Leishmania donovani [7]): 33.3 µg/mL
IC50 (Trypanosoma cruzi [2]): 0.36 µg/mL
IC50 (Leishmania donovani [6]): 0.2 µg/mL
IC50 (Trypanosoma cruzi [9]): 5.42 µg/mL

CCCCCCCCCCCCCCCCOP(=O)([O-])OCC[N+](C)(C)C [MILTEFOSINE]
IC50 [1]: 0.04 µg/mL (≈ 0.0981 µM)
IC50 (Trypanosoma cruzi [2]): 0.36 µg/mL (≈ 0.883 µM)
IC50 (Leishmania donovani [6]): 0.2 µg/mL (≈ 0.491 µM)

CO[C@H]1C=C2[C@H]3CN(Cc4cc5c(cc43)OCO5)[C@H]2C[C@@H]1O [MONTANINE]
Activity (Trichomonas vaginalis [4]): 35%

O=C(O)c1cccnc1 [NIACIN]
IC50 [1]: 41.2 µg/mL (≈ 335 µM)
IC50 (Trypanosoma cruzi [2]): > 90 µg/mL
IC50 (Leishmania donovani [6]): 57.4 µg/mL (≈ 466 µM)

COc1cc2c(cc1O)CN1CCC3=CC[C@@H](O)[C@@H]2[C@@H]31 [NORPLUVINE]
IC50 [1]: 90 µg/mL (≈ 329 µM)

Cc1ncc([N+](=O)[O-])n1CC(O)CCl (stereo not drawn) [ORNIDAZOLE]
IC50 (Entamoeba histolytica): 0.28 µg/mL (≈ 1.27 µM)

COc1cc([C@@H]2c3cc4c(cc3[C@H](O)[C@H]3COC(=O)[C@H]23)OCO4)cc(OC)c1OC [PODOFILOX]
IC50 (L6): 0.005 µg/mL (≈ 0.0121 µM)
IC50 (KB): 0.002 µg/mL (≈ 0.00483 µM)

COc1cc2c(cc1O)[C@@H]1[C@H](O)[C@@H](O)C=C3CCN(C2)[C@H]31 [PSEUDOLYCORINE]
IC50 (Trypanosoma cruzi [2]): > 30 µg/mL
IC50 (Leishmania donovani [6]): > 30 µg/mL

CN1CC[C@@]23C=C[C@H](O)C[C@@H]2Oc2c(O)ccc(c23)C1 [SANGUININE]
IC50 [1]: 22.5 µg/mL (≈ 82.3 µM)
IC50 (Trypanosoma cruzi [2]): > 30 µg/mL
IC50 (Leishmania donovani [6]): > 30 µg/mL

c1cc2c(c3c1C[C@H]1c4cc5c(cc4CCN1C3)OCO5)OCO2 [STYLOPINE]
IC50 [1]: 10.9 µg/mL (≈ 33.7 µM)
IC50 (Trypanosoma cruzi [2]): 17.5 µg/mL (≈ 54.2 µM)
IC50 (Leishmania donovani [6]): 31.2 µg/mL (≈ 96.4 µM)

CO[C@@H]1C=C[C@@]23c4cc5c(cc4CO[C@]2(O)CN(C)[C@H]3C1)OCO5 [TAZETTINE]
Activity (Trichomonas vaginalis [4]): 15%

[O-]c1cc2c3c(c1)c1cc4c(cc1c[n+]3CC2)OCO4 [UNGEREMINE]
IC50 [1]: 0.97 µg/mL (≈ 3.66 µM)
IC50 (Trypanosoma cruzi [2]): 0.85 µg/mL (≈ 3.2 µM)
IC50 (Leishmania donovani [6]): > 30 µg/mL
